{"source": "patent US11253589B2", "about": "“Modulation of the immune response” (priority 2007, dated 2022)", "key": {"C57BL/6 mice": {"tested_on": "C57BL/6 mice", "assay": "EAE induced by immunization with MOG35-55 in CFA", "assay_type": "in vivo, mouse"}, "[1]": {"settings": "compared with toxic effects reported for TCDD; cited from earlier work"}, "AHR": {"target": "T1, AHR (Homo sapiens, UniProt P35869)", "T1 sequence (P35869 11-848)": "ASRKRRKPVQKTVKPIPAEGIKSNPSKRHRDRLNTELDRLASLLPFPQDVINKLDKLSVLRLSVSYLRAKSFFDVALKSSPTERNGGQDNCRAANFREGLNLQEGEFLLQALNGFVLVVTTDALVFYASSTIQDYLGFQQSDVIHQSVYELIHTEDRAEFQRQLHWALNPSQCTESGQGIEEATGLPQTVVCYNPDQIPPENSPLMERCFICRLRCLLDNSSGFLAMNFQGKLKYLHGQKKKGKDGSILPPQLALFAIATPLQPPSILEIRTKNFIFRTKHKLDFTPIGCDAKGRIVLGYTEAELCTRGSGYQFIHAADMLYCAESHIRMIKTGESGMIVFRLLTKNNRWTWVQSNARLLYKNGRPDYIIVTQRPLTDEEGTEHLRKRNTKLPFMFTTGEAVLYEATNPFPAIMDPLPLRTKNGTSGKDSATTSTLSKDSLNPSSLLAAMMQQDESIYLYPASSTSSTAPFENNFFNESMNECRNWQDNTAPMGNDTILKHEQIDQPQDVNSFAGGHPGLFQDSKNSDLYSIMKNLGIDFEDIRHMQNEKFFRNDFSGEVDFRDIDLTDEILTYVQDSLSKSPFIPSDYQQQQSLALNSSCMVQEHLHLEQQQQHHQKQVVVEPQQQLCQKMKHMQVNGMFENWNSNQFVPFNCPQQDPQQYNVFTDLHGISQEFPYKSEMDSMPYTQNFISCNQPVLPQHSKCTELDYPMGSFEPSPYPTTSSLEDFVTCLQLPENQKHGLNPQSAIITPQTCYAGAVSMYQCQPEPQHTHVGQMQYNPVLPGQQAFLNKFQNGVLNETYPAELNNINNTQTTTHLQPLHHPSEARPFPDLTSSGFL", "settings": "cited from earlier work"}, "CD4+Foxp3:GFP- T cells": {"tested_on": "CD4+Foxp3:GFP- T cells", "assay": "In vitro conversion of CD4+Foxp3:GFP- T cells into Treg", "assay_type": "cell-based, mouse", "settings": "resveratrol 50 μM", "protocol": "CD4+ T cells were purified from Foxp3gfp knock in mice using anti-CD4 beads (Miltenyi, Auburn, Calif., USA) and sorted (FACSAria™ cell sorter, BD Biosciences) into naive CD4^+ Foxp3:GFP^− or CD4^+ Foxp3:GFP T cells. CD4^+ Foxp3:GFP^− T cells were stimulated with plate bound 1 μg/ml of anti-CD3 (145-2C11, eBioscience) and 2 μg/ml of anti-CD28 (37.51, eBioscience) for 5 days, supplemented with recombinant IL-2 (50 U/ml) at day 2 and 4, and analyzed by FACS at day 5 for their differentiation into […]. TGFβ1 (2.5 ng/ml) was used as a positive control.\nTo establish if TCDD triggered the conversion of CD4^+Foxp3^− T cells into new Foxp3^+ Treg cells, FACS sorted CD4^+Foxp3:GFP− T cells were activated in vitro with antibodies to CD3 and CD28 in the presence of TCDD, and the generation of CD4^+Foxp3:GFP^+ Treg was followed by FACS. TGFb1 was used as a positive control."}, "CD4+Foxp3:GFP+ Treg": {"tested_on": "CD4+Foxp3:GFP+ Treg", "assay": "Treg suppressive activity assay", "assay_type": "cell-based, mouse", "settings": "resveratrol treated cells", "protocol": "Cells were cultured in serum-free X-VIVO 20™ media (BioWhittaker, Walkersville, Md., USA) for 72 hours. During the last 16 hours, cells were pulsed with 1 μCi of [^3H]thymidine (PerkinElmer, Waltham, Mass., USA) followed by harvesting on glass fiber filters and analysis of incorporated [^3H]thymidine in a beta-counter (1450 Microbeta, Trilux, PerkinElmer). Alternatively, culture supernatants were collected […] activation and the cytokine concentration was determined by ELISA using antibodies for IFN-γ, IL-17, IL-4, IL-10 from BD Biosciences and antibodies to TGF-β from R&D Systems. For suppression assays, MACS purified CD4^+CD25^− T cells from naïve C57BL/6 mice (1-5×10^4 cells/well) were stimulated with antibodies to CD3 and C57BL/6 irradiated spleen cells (0.3-1.5×10^4 cells/well) for 3 days in the presence of different ratios of CD4^+ GFP^+ retrovirus-transduced T cells.\nTo investigate the active suppression of MOG35-55-specific Teff by Treg, Foxp3^gpf knock in mice were immunized with MOG35-55/CFA, treated daily with intreaperitoneal ITE ([…]) and the recall response to MOG35-55 and a mitogenic antibody to CD3 antibody was studied on FACS-sorted CD4^+ T cells and CD4^+ FoxP3:GFP− Teff. […] This suppressed response to MOG35-55 was lost upon removal of the CD4^+FoxP3:GFP^+ Treg (FIG. 26). To further analyze the MOG35-55-specific suppressive activity of the CD4^+FoxP3:GFP^+ Treg, they were cocultured at different ratios and assayed for the suppression of MOG35-55 or anti-CD3-triggered proliferation of CD4^+FoxP3:GFP− Teff form 2D2 mice, which harbor a TCR specific for MOG35-55."}, "[2]": {"tested_on": "CD4+ CD62L+CD45RO- T cells", "assay": "In vitro differentiation of human naive CD4+ T cells, suppression and real time PCR", "assay_type": "cell-based", "settings": "5 days activation with antibodies to CD3 and CD28; TGFb1 2.5 ng/ml or TCDD alone", "protocol": "To investigate the potential of AHR targeting for the induction of human Treg we activated purified naïve CD4^+ CD62L^+CD45RO^− T cells for healthy donors for 5 days with antibodies to CD3 and CD28 in the presence of TCDD 100 nM or TGFb1 2.5 ng/ml or both.\nTo study the functionality of the putative human Treg induced in the presence of TCDD we studied their suppressive activity of CD4^+ CD25^High and CD4^+CD25^Low T cells following 5 days of activation in the of TCDD or TGFb1 2.5 ng/ml or both.\nTo investigate the mechanism mediating the suppressive activity of the TCDD-induced Treg, we analyzed them by real time PCR for the expression of several genes that have been previously linked to the suppressive function of Treg. […] Accordingly, IL-10-specific blocking antibodies could interfere with the suppressive activity of Treg induced with TCDD, but not the of those induced with TGFb1 and TCDD (FIG. 42). Thus, TCDD-induced CD4^+CD25^High T cells are FoxP3^− regulatory cells whose suppressive activity is mediated, at least partially, via IL-10, resembling the phenotype of type 1 Treg (Roncarolo et al., Immunol Rev. 212, 28 (2006); Roncarolo and Gregori, Eur J Immunol. 38, 925 (2008))."}}, "data": [{"molecule": "O=Cc1c2c(cc3c1=Nc1ccccc1-3)=Nc1ccccc1-2", "note": "[FICZ, 6-formylindolo[3,2-b]carbazole]", "values": [{"measurement": "EAE development", "setting": "C57BL/6 mice; AHR-ligand loaded nanoparticles, 45 femtomoles weekly starting at day 0", "result": "worsened the disease"}]}, {"molecule": "NCCc1c[nH]c2ccccc12", "note": "[TA, tryptamine]", "values": [{"measurement": "EAE suppression", "setting": "C57BL/6 mice; TA combined with the monoamine oxidase inhibitor Tranylcypromine", "result": "effectively suppresses EAE"}, {"measurement": "toxic effects", "setting": "[1]", "result": "do not display the toxic effects"}, {"measurement": "AHR affinity", "setting": "AHR", "result": "high affinity AHR ligands"}]}, {"molecule": "Oc1ccc(C=Cc2cc(O)cc(O)c2)cc1", "note": "[resveratrol]", "values": [{"measurement": "induction of Treg by TGFβ1 and TCDD", "setting": "CD4+Foxp3:GFP- T cells", "result": "interfered with the induction of Treg"}, {"measurement": "suppressive activity of Treg", "setting": "CD4+Foxp3:GFP+ Treg", "result": "Decreases in the suppressive activity"}]}, {"molecule": "TGFb1: TGFβ1, positive control for Treg induction", "values": [{"measurement": "induction of suppressive (regulatory) T cells", "setting": "[2]", "result": "did not result in the induction of suppressive T cells"}]}]}
